From patent publication US10457961B2, “Chimeric proteins and methods of regulating gene expression” (The Board of Trustees of the Leland Stanford Junior …, priority 2016, dated 2019)

How the values were obtained:
[1] = tested on: CDKN1B (cyclin-dependent kinase inhibitor 1B); assay: CDKN1B upregulation and cell cycle arrest with minimal NC5 variants in HEK293T cells; type: cell-based, human; details: cells with minimal NC5 receptor variant and sgCDKN1B
Source text: Minimal NC5 receptor variants were used to elicit Delta-dependent arrest of the cell cycle (FIG. 39A). CDKN1B (cyclin-dependent kinase inhibitor 1B) was targeted in HEK293T cells with sgRNAs (sgCDKN1B). CDKN1B overexpression leads to cellular arrest at the G0/G1 phase (FIG. 39B). […] The Delta-induced CDKN1B upregulation and G0/G1 arrest in cells was abrogated with DAPT (FIGS. 39E and 39F).

luciferase reporter gene = assay: Luciferase reporter activation by chimeric CXCR4-dCas9-VPR in HEK293 cells; type: cell-based, human
Source text: FIGS. 23A and 23B show the results from three independent experiments testing the activity of a chimeric CXCR4-dCas9-VPR-mCherry 2301 in host cells, e.g., HEK293 cells. After ligand binding 2311, the β2-arrestin-protease was recruited to the activated receptor and the protease released the dCas9-VPR-mCherry from the receptor 2321. The expression construct for the β2-arrestin-protease is shown as 2351. The reporter construct is shown in 2341. In each experiment, the dCas9-VPR was paired with a single guide RNA (sgRNA) that specifically activates luciferase expression, which in turn generates luminescence. In this experiment a sgRNA-BFP was used 2331. In some experiments, a scFv-mCherry-VPR 2305 and/or a dCas9-10×GCN4 2307 was used as a control.
The CXCR4-dCas9-VPR-mCherry 2361 was conditionally expressed from a doxycycline-inducible promoter (TRE3G), such that only addition of doxycycline (Dox) and the presence of a co-activator can trigger expression of the recombinant receptor. Without Dox, there is no luminescence (FIG. 23B). […] Upon Dox addition, chimeric CXCR4-dCas9 was expressed, and luminescence was detected. […] Chimeric GPCR-dCas9 proteins described herein can be expressed in immune cells such as T cells and macrophages. Also, chemotactic experiments can be performed to determine if CXCL12 can serves as a chemoattractant to T cells expressing the chimeric GPCR-dCas9 proteins. […]

GFP reporter = GFP reporter activation by chimeric GPCR-dCas9-VPR receptors in HEK293T cells; type: cell-based, human; details: sgRNA and β2-arrestin-protease; presence of ligand (LPA, SDF1, or CNO) compared to absence of ligand
Source text: The released dCas9-VPR was then targeted by sgRNA to a target polynucleotide to alter expression levels of a GFP reporter.

[2] = tested on: cyclin-dependent kinase inhibitor 1B (CDKN1B); assay: Delta-dependent CDKN1B upregulation and G0/G1 arrest in HEK293 sgCDKN1B cells; type: cell-based, human
Source text: Combining the ability to route native extracellular signals with the discriminatory power of sgRNA-mediated Cas9 binding to virtually any genomic target opens up an exponential amount of signaling pathways and functions (FIG. 32A). The Notch chimeric receptors disclosed herein were used to elicit a novel Delta-dependent arrest of the cell-division cycle. HEK293 cells were stably transduced with lentivirus-packaged sgRNAs that specifically target cyclin-dependent kinase inhibitor 1B (CDKN1B), an endogenous regulator of the cell cycle. […] NC5 was transfected into HEK293 cells stably expressing sgRNAs for CDKN1B (sgCDKN1B) and the cells were subsequently introduced onto bare or Delta-containing surfaces. […] 38% of Delta-exposed, NC5-transfected, and sgCDKN1B^+ cells were determined to be sequestered at the G0/G1 phase, and only 2-16% of cells in all other conditions tested. […]
(§1) Cells were trypsinized and analyzed for reporter fluorescence or protein immunofluorescence using a Scanford FACScan analyzer (Becton Dickinson) and standard protocols. […]

[3] = tested on: UAS promoter controlling H2B-citrine reporter gene; assay: Delta-dependent H2B-citrine reporter activation in CHO UAS-H2B cells with sgUAS; type: cell-based, Chinese hamster
Experimental: A fusion construct, NC1, was created by replacing the NICD from human NOTCH1 with the Streptococcus pyogenes dCas9 fused to a tripartite activation domain (VP64, p65, and Rta) (FIG. 31B) with three copies of a nuclear localization signal (NLS) sequence. The construct was fluorescently tagged with mCherry to determine its subcellular distribution. Next, it was determined how the NC1 fusion construct responded to extracellular Delta ligands when transfected in mammalian cells. A Chinese hamster ovary (CHO) reporter cell line was used that was previously developed to dissect Notch-Delta signaling (Sprinzak, D. et al. Cis-interactions between Notch and Delta generate mutually exclusive signalling states. Nature 465, 86-90, doi:10.1038/nature08959 (2010)). The CHO cell line contained an inducible UAS (upstream activating sequence) promoter controlling the citrine (YFP)-tagged reporter gene, histone 2B (H2B). sgRNAs (sgUAS) were stably expressed via lentiviral transduction that allow cleaved dCas9 to bind to the UAS promoter (see Table 6). […] By imaging the fluorescence of nucleus-bound H2B-citrine, it was determined whether NC1 induced H2B expression upon exposure to surface-adsorbed Delta (FIG. 31C). […]
as §1

tet-inducible EGFP gene = assay: EGFP activation in HEK293T tet-inducible EGFP sgTET reporter cells on immobilized Delta; type: cell-based, human; details: cells cultured without Delta, and DAPT-treated cells with the highest Delta concentration, 3 days
Experimental: Activation of NC5 receptors by immobilized Delta ligand leads to cleavage and nuclear translocation of dCas9-VPR. dCas9-VPR complexed with a sequence-specific sgRNA (e.g., sgTET) allows for binding of the complex to the (e.g., TET) promoter and activation of EGFP gene (FIG. 31G). […] Cells transfected with dCas9-VPR or NC5 receptor (with or without the γ-secretase inhibitor, DAPT) were cultured with or without immbolized Delta for 3 days. Percentage of activated cells (ON %) is also indicated. Cells are considered ON above the basal intensity of all cells with no construct. […] Mean fold change compared to DAPT-treated condition is indicated.
Surface adsorption of Delta: Experiments described in this example were performed with cells plated on 24- or 48-well plates (Corning) at 1.5×10^4 cells/mL. […] For experiments with CHO cells, 5 μg/mL of hamster fibronectin (Innovative Research) was also adsorbed together with Delta.
Cells were trypsinized and analyzed for reporter fluorescence or protein immunofluorescence using a Scanford FACScan analyzer (Becton Dickinson) and standard protocols. For intracellular proteins, cells were trypsinized and fixed in 4% paraformaldehyde solution for 15 minutes, were incubated for 2 h at room temperature with the appropriate primary antibody in a solution of 0.3% Triton-X 100 (Sigma) with 2% normal donkey serum (Thermo Fisher) in PBS. […]

[4] = tested on: 12xCSL promoter H2B-citrine reporter; assay: H2B-citrine reporter driven by 12xCSL promoter in CHO cells with sasgCSL; type: cell-based, Chinese hamster; details: with S. aureus-specific sgRNA (sasgCSL)
Source text: Chimera modularity was further explored by testing another Cas9 ortholog in a similar reporter assay (H2B-citrine driven by a 12×CSL promoter that also allows wild-type NICD to bind). A Staphylococcus aureus dCas9 was introduced in the NC5 design. This resulting S. au.
All cell lines used in FIGS. 31A-31F were based on the cell line T-Rex-CHO-K1 (Invitrogen). Stable cell clones of UAS-H2B-citrine and 12×CSL-H2B-citrine were obtained. Additional cell lines were generated from lentiviral transduction (of all sgRNAs and SV40-EGFP) or plasmid transfection using TransIT-LT1 reagent (Minis Bio) per manufacturer's instructions, followed by appropriate antibiotic selection and maintenance. Stably transfected clones expressing NC5 and sgUAS in the UAS-H2B-citrine line were isolated by FACS, after 2 weeks of puromycin and geneticin selection. All CHO cell lines were grown in Alpha MEM with Earle's Salts (Irvine Scientific) supplemented with 10% Tet System Approved FBS (Clontech), 100 U/mL of penicillin and streptomycin, 2 mM L-glutamine (Gibco) and 10 μg/mL blasticidin (VWR International) at 37° C. with 5% CO2 in a humidified incubator.
Surface adsorption of Delta: Experiments described in this example were performed with cells plated on 24- or 48-well plates (Corning) at 1.5×10^4 cells/mL. […]

pTET-EGFP reporter = assay: EGFP reporter activation by dCas9-VPR iNLS variants in HEK293 pTET-EGFP sgTET cells; type: cell-based, human
Source text: Cas9 found at amino acid residues 647-670. […] Representative histograms of EGFP activation in the presence or absence (bottom) of constructs and quantification of EGFP activation (normalized to untransfected cells) is shown (SEQ ID NO: 31, 32). […] FIGS. 35C and 35D show visually by microscopy and quantitatively that adding a synthetic NLS to the N-terminus of iNLS-mutated dCas9-VPR partially restores EGFP activation.
Cas9. This iNLS sequence ([…] (SEQ ID NO: 31)) of amino-acid residues was mapped to a helix-linker-helix motif in the crystal structure of S. py. Cas9. […] Mutating 6 arginine or lysine residues of the iNLS to alanines ([…] (SEQ ID NO: 32)) in a dCas9-VPR-mCherry construct impaired EGFP activation (from 18-fold down to 4-fold) in HEK293 reporter cells. […] Disrupting this iNLS motif by mutating arginine and lysine residues to alanines […] […] Representative histograms of EGFP reporter are shown to the right; percentage of cells considered ‘ON’ had reporter intensities above untransfected ‘OFF’ cells.

C[C@H](NC(=O)Cc1cc(F)cc(F)c1)C(=O)N[C@H](C(=O)OC(C)(C)C)c1ccccc1 [DAPT]
Delta-induced CDKN1B upregulation and G0/G1 arrest [1]: abrogated

CXCR4-dCas9-VPR: CXCR4-V2 tail-TEV cleavage site-dCas9-VPR-NLS-mCherry, SEQ ID NO:3
luminescence (luciferase reporter) (luciferase reporter gene; HEK293 cells, sgRNA activating luciferase, receptor induced with doxycycline): sensitive to increasing concentrations of the CXCR4 ligand, CXCL12 | transcription of luciferase gene (luciferase reporter gene; sgTET, TetO promoter, β2-arrestin-protease): regulated by CXCL2 binding | levels of GFP reporter protein (GFP reporter): increased levels of GFP reporter protein

NC5: hNECD-dCas9-VPR-mCherry with LMAN1 MMS sequence at the C-terminus, no synthetic NLS
upregulation of CDKN1B ([2]; 4 days on Delta, compared to bare-surface, untransfected controls): > 2 fold | cells sequestered at the G0/G1 phase ([2]; Delta-exposed, NC5-transfected, sgCDKN1B+ cells): 38% | H2B activation in response to Delta ([3]; CHO reporter cells with NC5 and sgUAS stably integrated, single clone): Three-fold | H2B expression with or without Delta ([3]; transfected CHO UAS-H2B-citrine sgUAS cells, bare or Delta-coated surface, 4 days): exhibited Delta-dependent activation of H2B | EGFP activation (tet-inducible EGFP gene): did not activate EGFP

S. au. NC5 dCas9 variant: NC5 design with Staphylococcus aureus dCas9
Delta-dependent activation levels of H2B-citrine [4]: exhibited Delta-dependent activation levels similar to wild-type human NOTCH1

mutated-iNLS variant: dCas9-VPR-mCherry with 6 arginine or lysine residues of the iNLS mutated to alanines (SEQ ID NO: 32) (VMAQLKAAAYTGWGRLSAALINGI)
nuclear localization and EGFP reporter activation (pTET-EGFP reporter; HEK293T cells, confocal microscopy): severely impaired nuclear localization and EGFP reporter activation | percentage of cells that activate EGFP (pTET-EGFP reporter; HEK293 reporter cells): ~16% | EGFP activation (pTET-EGFP reporter; HEK293 reporter cells, normalized to untransfected cells): 4 fold | EGFP activation (pTET-EGFP reporter; synthetic NLS added back to the N-terminus): partially restored EGFP activation
